Test results published in paper PMC11785709, “Angelica gigas Nakai (Korean Dang-gui) Root Alcoholic Extracts in Health Promotion and Disease Therapy – active Phytochemicals and In Vivo Molecular Targets” (Pharmaceutical Research, 2025).
“And” between values parts separate entries of the source, which are not always exact repeats. Identical values can stand only once.

Assays:
AR; ERα = conditions: cited from earlier work; for mode of action on AR and ERα: responsive cancer cell culture models
[1] = system: rat hypothalamic primary neuronal cells; set-up: method as in PMID 28066138; conditions: cited from earlier work
[2] = system: adipose stem cells (ASCs); set-up: method as in PMID 31861646; conditions: cited from earlier work
sleep architectures = system: sleep architectures; set-up: method as in PMID 28066138; conditions: DA 50 mg/kg, po; cited from earlier work
CYP2C19 and 3A4 = conditions: cited from earlier work
carboxyesterase-2 (CES2) = conditions: cited from earlier work
HepG2 cells = system: HepG2 cells; set-up: method as in earlier work; conditions: free fatty acid mixture (oleate:palmitate = 2:1); cited from earlier work
GDH = system: GDH; set-up: method as in PMID 36455296; conditions: read-out: GDH inhibition IC50; cited from earlier work
CLP microbial exposure = conditions: ip twice at 2 h and 4 h after CLP; cited from earlier work
TYK2 = target: T1, TYK2 (Homo sapiens, UniProt P29597); experiment: Reaction Biology kinase activity inhibition; type: biochemical; conditions: initial screening
T1 construct: purchased Reaction Biology
T1 sequence (P29597 whole entry): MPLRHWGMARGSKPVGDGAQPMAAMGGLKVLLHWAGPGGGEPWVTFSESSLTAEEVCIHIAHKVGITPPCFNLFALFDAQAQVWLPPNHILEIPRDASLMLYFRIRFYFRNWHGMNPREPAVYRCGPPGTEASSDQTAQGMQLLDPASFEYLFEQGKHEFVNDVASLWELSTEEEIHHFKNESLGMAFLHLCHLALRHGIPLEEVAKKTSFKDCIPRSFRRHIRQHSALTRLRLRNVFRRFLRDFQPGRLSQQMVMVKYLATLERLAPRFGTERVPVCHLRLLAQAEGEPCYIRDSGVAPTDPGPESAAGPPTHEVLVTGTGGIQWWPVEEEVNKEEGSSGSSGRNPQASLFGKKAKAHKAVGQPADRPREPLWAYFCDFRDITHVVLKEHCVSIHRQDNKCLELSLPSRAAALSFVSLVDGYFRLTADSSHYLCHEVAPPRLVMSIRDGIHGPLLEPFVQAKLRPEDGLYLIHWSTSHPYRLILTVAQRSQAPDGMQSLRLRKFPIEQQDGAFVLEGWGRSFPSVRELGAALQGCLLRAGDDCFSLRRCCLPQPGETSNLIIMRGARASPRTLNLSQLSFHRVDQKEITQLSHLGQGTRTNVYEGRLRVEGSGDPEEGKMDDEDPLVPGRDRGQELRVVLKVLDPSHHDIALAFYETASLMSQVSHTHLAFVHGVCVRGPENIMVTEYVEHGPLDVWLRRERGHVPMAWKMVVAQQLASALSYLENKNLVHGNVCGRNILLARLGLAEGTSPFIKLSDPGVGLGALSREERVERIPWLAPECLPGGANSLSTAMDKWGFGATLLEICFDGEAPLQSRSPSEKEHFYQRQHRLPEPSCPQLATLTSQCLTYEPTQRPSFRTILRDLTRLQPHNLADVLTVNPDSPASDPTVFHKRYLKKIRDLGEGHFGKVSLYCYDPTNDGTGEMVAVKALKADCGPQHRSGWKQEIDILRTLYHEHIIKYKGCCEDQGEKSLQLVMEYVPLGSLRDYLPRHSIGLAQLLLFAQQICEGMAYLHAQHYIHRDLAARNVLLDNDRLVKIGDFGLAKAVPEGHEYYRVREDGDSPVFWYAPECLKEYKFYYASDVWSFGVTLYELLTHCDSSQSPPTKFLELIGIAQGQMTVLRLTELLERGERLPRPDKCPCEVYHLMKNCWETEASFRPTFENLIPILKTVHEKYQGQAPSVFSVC
From the text: (§1) The second screening was the Reaction Biology® (Malvern, PA) kinase activity inhibition tests, which screened for more than 600 protein kinases and lipid kinases, using miniaturized radioisotope-based assay platform with γ-^33P-ATP, followed by confirmation with IC50 kinase profiling service with 5 concentrations of test compound (i.e., DOH and DA) with curve fitting.

PKN1-TECR (Tex1Pex10) = experiment: Reaction Biology kinase activity inhibition; type: biochemical; conditions: initial screening
From the text: as §1

LRRK2 (G2019S) = target: T2, LRRK2 (G2019S) (Homo sapiens, UniProt Q5S007, G2019S); experiment: Reaction Biology kinase activity inhibition; type: biochemical; conditions: initial screening
T2 construct: purchased Reaction Biology
T2 sequence (Q5S007 whole entry G2019S): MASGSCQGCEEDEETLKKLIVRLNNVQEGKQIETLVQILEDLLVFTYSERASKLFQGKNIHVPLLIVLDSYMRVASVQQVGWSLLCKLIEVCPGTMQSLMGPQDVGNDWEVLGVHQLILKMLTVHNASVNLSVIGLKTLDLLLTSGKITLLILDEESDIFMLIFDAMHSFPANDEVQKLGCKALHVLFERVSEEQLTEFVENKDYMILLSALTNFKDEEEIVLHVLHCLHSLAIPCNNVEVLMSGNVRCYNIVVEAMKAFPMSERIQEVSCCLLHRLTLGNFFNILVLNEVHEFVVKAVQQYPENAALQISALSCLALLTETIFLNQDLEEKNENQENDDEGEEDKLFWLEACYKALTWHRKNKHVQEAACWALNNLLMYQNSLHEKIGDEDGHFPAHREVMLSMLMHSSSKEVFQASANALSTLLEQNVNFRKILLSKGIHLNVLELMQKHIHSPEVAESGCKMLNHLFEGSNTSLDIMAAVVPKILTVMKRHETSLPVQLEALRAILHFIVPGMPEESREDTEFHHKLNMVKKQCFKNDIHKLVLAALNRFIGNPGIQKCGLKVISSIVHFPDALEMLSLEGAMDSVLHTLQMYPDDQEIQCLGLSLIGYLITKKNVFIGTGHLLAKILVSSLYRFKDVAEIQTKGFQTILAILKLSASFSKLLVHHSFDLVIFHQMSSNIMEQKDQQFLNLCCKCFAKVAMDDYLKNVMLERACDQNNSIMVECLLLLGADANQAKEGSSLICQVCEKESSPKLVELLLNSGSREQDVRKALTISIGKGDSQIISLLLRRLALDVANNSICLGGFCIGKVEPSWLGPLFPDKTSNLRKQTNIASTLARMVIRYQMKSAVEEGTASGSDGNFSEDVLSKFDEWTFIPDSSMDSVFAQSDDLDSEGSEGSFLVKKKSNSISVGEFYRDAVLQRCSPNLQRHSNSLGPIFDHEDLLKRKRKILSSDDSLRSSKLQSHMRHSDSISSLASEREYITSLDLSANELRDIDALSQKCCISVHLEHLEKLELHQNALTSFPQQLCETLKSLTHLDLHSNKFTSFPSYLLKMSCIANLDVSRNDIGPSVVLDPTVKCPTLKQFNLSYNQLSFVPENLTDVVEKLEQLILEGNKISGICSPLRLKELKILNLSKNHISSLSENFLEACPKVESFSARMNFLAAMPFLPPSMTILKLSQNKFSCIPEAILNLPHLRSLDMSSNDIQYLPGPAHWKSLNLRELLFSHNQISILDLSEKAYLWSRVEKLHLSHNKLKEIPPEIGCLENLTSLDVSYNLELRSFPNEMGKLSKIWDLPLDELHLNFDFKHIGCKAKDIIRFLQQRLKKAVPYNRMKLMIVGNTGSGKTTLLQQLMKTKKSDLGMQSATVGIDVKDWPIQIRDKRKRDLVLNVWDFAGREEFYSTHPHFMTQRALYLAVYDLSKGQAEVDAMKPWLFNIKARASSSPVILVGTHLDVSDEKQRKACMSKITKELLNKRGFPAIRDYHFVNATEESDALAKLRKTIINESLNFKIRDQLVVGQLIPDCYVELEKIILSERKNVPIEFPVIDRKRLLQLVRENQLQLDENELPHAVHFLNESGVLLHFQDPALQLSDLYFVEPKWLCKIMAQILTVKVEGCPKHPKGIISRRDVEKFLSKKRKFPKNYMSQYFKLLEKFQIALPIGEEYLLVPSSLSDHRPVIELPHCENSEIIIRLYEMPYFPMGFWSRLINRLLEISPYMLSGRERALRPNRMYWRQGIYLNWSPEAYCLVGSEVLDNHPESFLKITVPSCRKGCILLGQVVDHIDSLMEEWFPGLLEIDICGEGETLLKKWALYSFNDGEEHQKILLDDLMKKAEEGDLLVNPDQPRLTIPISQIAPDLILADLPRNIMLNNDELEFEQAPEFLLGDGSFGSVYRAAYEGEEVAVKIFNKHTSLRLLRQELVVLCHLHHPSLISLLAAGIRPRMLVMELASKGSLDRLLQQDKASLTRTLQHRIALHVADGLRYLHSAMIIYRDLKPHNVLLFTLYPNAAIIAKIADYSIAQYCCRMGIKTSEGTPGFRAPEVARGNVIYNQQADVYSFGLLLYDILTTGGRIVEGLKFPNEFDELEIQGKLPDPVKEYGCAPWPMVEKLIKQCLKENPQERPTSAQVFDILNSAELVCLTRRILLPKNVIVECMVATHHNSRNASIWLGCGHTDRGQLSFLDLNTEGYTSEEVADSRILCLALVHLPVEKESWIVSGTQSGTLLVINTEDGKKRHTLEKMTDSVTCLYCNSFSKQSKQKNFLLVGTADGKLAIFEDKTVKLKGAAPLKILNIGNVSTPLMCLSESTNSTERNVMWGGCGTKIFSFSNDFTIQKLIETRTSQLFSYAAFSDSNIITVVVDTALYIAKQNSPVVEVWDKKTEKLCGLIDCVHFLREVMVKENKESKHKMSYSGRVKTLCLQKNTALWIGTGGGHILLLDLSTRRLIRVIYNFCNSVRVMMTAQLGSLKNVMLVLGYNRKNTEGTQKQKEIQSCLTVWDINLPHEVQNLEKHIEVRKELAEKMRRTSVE
From the text: as §1

CAMK1d = target: T3, CAMK1d (Homo sapiens, UniProt Q8IU85); experiment: Reaction Biology kinase activity inhibition; type: biochemical; conditions: initial screening
T3 construct: purchased Reaction Biology
T3 sequence (Q8IU85 whole entry): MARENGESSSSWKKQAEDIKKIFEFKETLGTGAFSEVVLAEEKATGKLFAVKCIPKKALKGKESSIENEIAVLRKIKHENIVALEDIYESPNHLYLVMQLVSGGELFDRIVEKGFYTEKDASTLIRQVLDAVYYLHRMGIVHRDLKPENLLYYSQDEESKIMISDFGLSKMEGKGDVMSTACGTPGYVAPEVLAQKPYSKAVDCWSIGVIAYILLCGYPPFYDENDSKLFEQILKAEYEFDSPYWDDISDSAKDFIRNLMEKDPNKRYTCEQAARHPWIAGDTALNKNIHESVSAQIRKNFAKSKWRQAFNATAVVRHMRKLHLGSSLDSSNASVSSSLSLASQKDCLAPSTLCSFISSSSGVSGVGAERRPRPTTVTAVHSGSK
From the text: as §1

ALK-TFG = experiment: Reaction Biology kinase activity inhibition; type: biochemical; conditions: initial screening
From the text: as §1

BRSK1 = target: T4, BRSK1 (Homo sapiens, UniProt Q8TDC3); experiment: Reaction Biology kinase activity inhibition; type: biochemical; conditions: initial screening
T4 construct: purchased Reaction Biology
T4 sequence (Q8TDC3 1-778): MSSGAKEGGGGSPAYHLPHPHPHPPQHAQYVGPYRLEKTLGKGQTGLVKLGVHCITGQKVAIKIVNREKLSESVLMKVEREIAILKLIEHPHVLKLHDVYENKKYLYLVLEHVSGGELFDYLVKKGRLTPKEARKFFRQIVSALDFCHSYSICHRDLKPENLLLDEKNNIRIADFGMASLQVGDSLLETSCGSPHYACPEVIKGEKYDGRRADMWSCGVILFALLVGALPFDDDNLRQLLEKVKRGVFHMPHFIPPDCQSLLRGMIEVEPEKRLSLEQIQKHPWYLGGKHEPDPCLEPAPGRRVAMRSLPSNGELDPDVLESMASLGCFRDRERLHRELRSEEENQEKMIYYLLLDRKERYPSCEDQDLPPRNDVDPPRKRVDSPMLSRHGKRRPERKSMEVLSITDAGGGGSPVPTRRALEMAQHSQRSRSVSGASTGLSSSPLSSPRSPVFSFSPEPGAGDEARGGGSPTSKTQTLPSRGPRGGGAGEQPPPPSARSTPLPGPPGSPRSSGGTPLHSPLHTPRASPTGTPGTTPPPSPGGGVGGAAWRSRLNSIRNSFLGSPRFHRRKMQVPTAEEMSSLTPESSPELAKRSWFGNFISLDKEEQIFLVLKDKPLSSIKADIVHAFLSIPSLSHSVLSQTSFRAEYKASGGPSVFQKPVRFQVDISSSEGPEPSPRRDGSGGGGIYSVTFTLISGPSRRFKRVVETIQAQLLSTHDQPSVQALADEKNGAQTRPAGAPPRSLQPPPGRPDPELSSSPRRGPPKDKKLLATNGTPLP
From the text: as §1

LKB1 = target: T5, LKB1 (Homo sapiens, UniProt Q15831); experiment: Reaction Biology kinase activity inhibition; type: biochemical; conditions: activity screening, DOH at 50 μM
T5 construct: purchased Reaction Biology (Malvern, PA)
From the text: as §1

CLK4 = target: T6, CLK4 (Homo sapiens, UniProt Q9HAZ1); experiment: Reaction Biology kinase activity inhibition; type: biochemical; conditions: initial screening
T6 construct: purchased Reaction Biology
T6 sequence (Q9HAZ1 whole entry): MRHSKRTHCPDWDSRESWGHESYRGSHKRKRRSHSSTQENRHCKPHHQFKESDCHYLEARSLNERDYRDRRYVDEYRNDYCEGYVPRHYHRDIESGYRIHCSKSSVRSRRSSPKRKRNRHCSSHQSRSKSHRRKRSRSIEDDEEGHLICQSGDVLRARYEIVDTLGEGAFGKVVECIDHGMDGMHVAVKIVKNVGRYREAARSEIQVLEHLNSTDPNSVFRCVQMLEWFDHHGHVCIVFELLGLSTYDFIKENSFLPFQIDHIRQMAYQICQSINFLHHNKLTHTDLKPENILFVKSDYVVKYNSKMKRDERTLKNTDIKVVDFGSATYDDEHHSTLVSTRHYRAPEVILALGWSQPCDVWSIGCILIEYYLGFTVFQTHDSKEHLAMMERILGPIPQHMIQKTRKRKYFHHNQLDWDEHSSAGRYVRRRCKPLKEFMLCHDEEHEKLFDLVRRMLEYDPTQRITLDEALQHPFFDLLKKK
From the text: as §1

FGR = target: T7, FGR (Homo sapiens, UniProt P09769); experiment: Reaction Biology kinase activity inhibition; type: biochemical; conditions: initial screening
T7 construct: purchased Reaction Biology
T7 sequence (P09769 whole entry): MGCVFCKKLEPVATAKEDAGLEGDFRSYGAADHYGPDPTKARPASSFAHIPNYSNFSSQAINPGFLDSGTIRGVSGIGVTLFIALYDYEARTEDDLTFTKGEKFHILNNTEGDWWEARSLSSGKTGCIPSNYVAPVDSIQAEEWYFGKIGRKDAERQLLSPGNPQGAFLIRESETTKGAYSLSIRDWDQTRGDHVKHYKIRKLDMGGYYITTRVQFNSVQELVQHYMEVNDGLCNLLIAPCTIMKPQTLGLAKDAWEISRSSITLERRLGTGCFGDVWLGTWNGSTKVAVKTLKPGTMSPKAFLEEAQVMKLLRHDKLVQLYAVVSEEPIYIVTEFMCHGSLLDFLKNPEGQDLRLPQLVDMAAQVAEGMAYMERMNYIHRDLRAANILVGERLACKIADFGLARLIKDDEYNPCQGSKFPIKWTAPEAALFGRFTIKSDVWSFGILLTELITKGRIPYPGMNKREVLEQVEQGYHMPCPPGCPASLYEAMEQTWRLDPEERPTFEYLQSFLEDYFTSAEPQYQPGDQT
From the text: as §1

[3] = system: BOCCA and MCAO ischemic damage; set-up: method as in PMID 19801740; conditions: 20 mg/kg, pre or post-treatment; cited from earlier work
[4] = set-up: method as in PMID 27080944, PMID 23364885, PMID 29121805; conditions: oral gavage dosing of AGN or D/DA; cited from earlier work
experimental sepsis = system: experimental sepsis; set-up: method as in PMID 20157398; conditions: ip 1 ~ 100 mg/kg before LPS/GalN or high-dose LPS (20 mg/kg); cited from earlier work
[5] = system: serotonin (5-hydroxytryptamine) level; set-up: method as in PMID 19801740; conditions: DOH gavage, highest at 10 mg DOH/kg in frontal cortex and striatum; cited from earlier work
CDK9 = CDK9 (Homo sapiens, UniProt P50750); experiment: Reaction Biology kinase activity inhibition; type: biochemical; set-up: purchased Reaction Biology (Malvern, PA); conditions: activity screening, DOH at 50 μM
From the text: as §1

[6] = DOH (50 µM), Data 1 and Data 2, read-out: % Enzyme Activity (relative to DMSO controls)

## C/C=C(/C)C(=O)O[C@H]1Cc2cc3ccc(=O)oc3cc2OC1(C)C [DA, decursinol angelate]
AR; ERα; antagonist/degrader
  IC50: ~5 µM
AR; ERα
  mode of action on AR and ERα: antagonists/degraders
[1]; DA 0.001, 0.01 and 0.1 µg/ml ≈ 0.003, 0.03 and 0.3 µM
  intracellular Cl- influx level: increased
[1]
  protein expression of GAD65/67 and GABAA receptor subtypes: increased the protein expression
[2]
  adipocyte differentiation: significantly inhibited adipocyte differentiation
Sleep architectures
  total sleep time (EEG): increased total sleep time
CYP2C19 and 3A4
  Cyp isoforms for metabolism to DOH: major human isoforms
carboxyesterase-2 (CES2)
  CES2 contribution to metabolism to DOH: not
HepG2 cells
  lipid accumulation: suppressed lipid accumulation
GDH
  IC50: ~1.4 µM and 1.4 µM

## CC1(C)Oc2cc3oc(=O)ccc3cc2C[C@@H]1O [DOH, decursinol]
AR; ERα; read-out: AR, ERα agonist EC50
  EC50: ~10 µM
AR; ERα
  mode of action on AR and ERα: weak partial agonist activity
CLP microbial exposure
  dose giving plateau of therapeutic benefit: ≥ 10 mg/kg
TYK2; DOH 50 µM
  inhibition at 50 µM: 32.4%
TYK2; DOH (50 µM), Data 1 and Data 2
  % Enzyme Activity (relative to DMSO controls): 62.8%
TYK2; [6]
  remaining activity at 50 µM: 72.3%
PKN1-TECR (Tex1Pex10); DOH 50 µM
  DOH % Inhibition: 27.6%
PKN1-TECR (Tex1Pex10); DOH (50 µM), Data 1 and Data 2
  % Enzyme Activity (relative to DMSO controls): 72.6% and 72.4%
LRRK2 (G2019S); DOH 50 µM
  inhibition at 50 µM: 26.8%
LRRK2 (G2019S); DOH (50 µM), Data 1 and Data 2
  % Enzyme Activity (relative to DMSO controls): 73.0%
LRRK2 (G2019S); [6]
  remaining activity at 50 µM: 73.4%
CAMK1d; DOH 50 µM
  inhibition at 50 µM: 27.1%
CAMK1d; DOH (50 µM), Data 1 and Data 2
  % Enzyme Activity (relative to DMSO controls): 70.6%
CAMK1d; [6]
  remaining activity at 50 µM: 75.3%
ALK-TFG; DOH 50 µM
  DOH % Inhibition: 27.9%
ALK-TFG; DOH (50 µM), Data 1 and Data 2
  % Enzyme Activity (relative to DMSO controls): 75.7% and 68.5%
BRSK1; DOH 50 µM
  inhibition at 50 µM: 29.7%
BRSK1; DOH (50 µM), Data 1 and Data 2
  % Enzyme Activity (relative to DMSO controls): 69.5%
BRSK1; [6]
  remaining activity at 50 µM: 71.1%
LKB1
  inhibition of kinase activity: no inhibition
CLK4; DOH 50 µM
  inhibition at 50 µM: 25.7%
CLK4; DOH (50 µM), Data 1 and Data 2
  % Enzyme Activity (relative to DMSO controls): 74.0%
CLK4; [6]
  remaining activity at 50 µM: 74.8%
FGR; DOH 50 µM
  inhibition at 50 µM: 34.8%
FGR; DOH (50 µM), Data 1 and Data 2
  % Enzyme Activity (relative to DMSO controls): 64.8%
FGR; [6]
  remaining activity at 50 µM: 65.6%
[3]
  protection against ischemia stroke models: failed to protect
[4]
  DOH level achievable in the blood: double digit micromolar
Experimental sepsis
  reduction of sepsis lethality ED50: ~ 10 mg/kg
[5]
  serotonin (5-hydroxytryptamine) level in brain: increase
CDK9
  inhibition of kinase activity: no inhibition
